# Earlier results as cited in US20160235072A1, “ANTIMICROBIAL POLYMER CONCENTRATES AND COMPOUNDS” (POLYONE CORPORATION, priority 2013, published 2016).
# System: pathogens from the Streptococcus and Staphylococcus genera
substance,measurement,value
Zinc pyrithione,effectiveness against pathogens,effective against many pathogens
